{"source": "PubChem BioAssay (NCI)", "assay_in_all_cases": "growth of human tumour cells (NCI), 48 h", "key": {"[1]": {"tested_on": "M19-MEL melanoma"}, "[2]": {"tested_on": "SNB-78 CNS"}, "[3]": {"tested_on": "DMS 114 small cell lung"}, "[4]": {"tested_on": "RXF-631 renal"}, "[5]": {"tested_on": "DU-145 prostate"}, "[6]": {"tested_on": "MDA-MB-231 breast"}, "[7]": {"tested_on": "NCI/ADR-RES ovarian"}, "[8]": {"tested_on": "T-47D breast"}, "[9]": {"tested_on": "MDA-N"}}, "note": "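Tested at 5 concentrations; 48 h exposure; 96-well plates; endpoints linearly interpolated, else capped at highest concentration. TGI is the concentration that stops growth completely.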"}
{"smiles": "CC1=C2C(O)C(C(C)CO)C(O)CC2(C)C(O)CC1", "note": "(stereo not drawn)", "values": [{"measurement": "TGI", "setting": "[1]", "result": "> 100", "unit": "µM"}, {"measurement": "TGI", "setting": "[2]", "result": "> 100", "unit": "µM"}, {"measurement": "TGI", "setting": "[3]", "result": "> 100", "unit": "µM"}, {"measurement": "TGI", "setting": "[4]", "result": "> 100", "unit": "µM"}]}
{"smiles": "O=C1C=C(c2c(O)ccc3ccccc23)c2ccccc2C1=O", "values": [{"measurement": "TGI", "setting": "[5]", "result": 24, "unit": "µM"}, {"measurement": "TGI", "setting": "[6]", "result": 8.79, "unit": "µM"}, {"measurement": "TGI", "setting": "[1]", "result": 8.81, "unit": "µM"}, {"measurement": "TGI", "setting": "[2]", "result": 8.64, "unit": "µM"}, {"measurement": "TGI", "setting": "[3]", "result": 6.71, "unit": "µM"}, {"measurement": "TGI", "setting": "[4]", "result": 32.9, "unit": "µM"}, {"measurement": "TGI", "setting": "[7]", "result": 8.96, "unit": "µM"}]}
{"smiles": "CC(C)=CC(C(O)c1ccccc1)S(=O)(=O)c1nccn1C", "note": "(stereo not drawn)", "values": [{"measurement": "TGI", "setting": "[1]", "result": "> 100", "unit": "µM"}, {"measurement": "TGI", "setting": "[3]", "result": "> 100", "unit": "µM"}, {"measurement": "TGI", "setting": "[4]", "result": "> 100", "unit": "µM"}]}
{"smiles": "C=CCCCCCCCCCCCC1CCC(CC)N1", "note": "(stereo not drawn)", "values": [{"measurement": "TGI", "setting": "[1]", "result": 16.2, "unit": "µM"}, {"measurement": "TGI", "setting": "[2]", "result": 37.8, "unit": "µM"}, {"measurement": "TGI", "setting": "[3]", "result": 14.7, "unit": "µM"}, {"measurement": "TGI", "setting": "[4]", "result": 23.5, "unit": "µM"}]}
{"smiles": "CC(=O)O/N=C/c1ncccc1CO", "values": [{"measurement": "TGI", "setting": "[1]", "result": "> 100", "unit": "µM"}, {"measurement": "TGI", "setting": "[3]", "result": "> 100", "unit": "µM"}, {"measurement": "TGI", "setting": "[4]", "result": "> 100", "unit": "µM"}]}
{"smiles": "Cc1nc2ccc(C(F)(F)F)cc2nc1Nc1ccc(Cl)c(Cl)c1", "values": [{"measurement": "TGI", "setting": "[1]", "result": 24.4, "unit": "µM"}, {"measurement": "TGI", "setting": "[2]", "result": 34.4, "unit": "µM"}, {"measurement": "TGI", "setting": "[4]", "result": 20.1, "unit": "µM"}]}
{"smiles": "O=C1C(Br)=C[C@H]2C3C=CC(Br)(C3=O)[C@@H]12", "note": "(stereo partly drawn)", "values": [{"measurement": "TGI", "setting": "[1]", "result": 24.8, "unit": "µM"}, {"measurement": "TGI", "setting": "[2]", "result": "> 100", "unit": "µM"}, {"measurement": "TGI", "setting": "[3]", "result": 28.3, "unit": "µM"}, {"measurement": "TGI", "setting": "[4]", "result": 50.1, "unit": "µM"}]}
{"smiles": "CC1(C)C(=O)N(c2ccccc2)C(=O)N1c1nc2ccccc2[nH]1", "values": [{"measurement": "TGI", "setting": "[1]", "result": "> 100", "unit": "µM"}, {"measurement": "TGI", "setting": "[2]", "result": "> 100", "unit": "µM"}, {"measurement": "TGI", "setting": "[3]", "result": "> 100", "unit": "µM"}, {"measurement": "TGI", "setting": "[4]", "result": "> 100", "unit": "µM"}]}
{"smiles": "N#CCCc1nc2ccc(Br)cc2c(=O)n1CCO", "values": [{"measurement": "TGI", "setting": "[1]", "result": "> 100", "unit": "µM"}, {"measurement": "TGI", "setting": "[2]", "result": "> 100", "unit": "µM"}, {"measurement": "TGI", "setting": "[3]", "result": "> 100", "unit": "µM"}, {"measurement": "TGI", "setting": "[4]", "result": "> 100", "unit": "µM"}]}
{"smiles": "C=CCc1cc2cccc(OC)c2oc1=O", "values": [{"measurement": "TGI", "setting": "[1]", "result": "> 100", "unit": "µM"}, {"measurement": "TGI", "setting": "[2]", "result": "> 100", "unit": "µM"}, {"measurement": "TGI", "setting": "[3]", "result": "> 100", "unit": "µM"}, {"measurement": "TGI", "setting": "[4]", "result": "> 100", "unit": "µM"}]}
{"smiles": "CCC(=O)c1cn(C)c(=O)c2ccccc12", "values": [{"measurement": "TGI", "setting": "[2]", "result": "> 100", "unit": "µM"}, {"measurement": "TGI", "setting": "[3]", "result": "> 100", "unit": "µM"}, {"measurement": "TGI", "setting": "[4]", "result": "> 100", "unit": "µM"}]}
{"smiles": "Cc1nc(N)sc1C(=O)/C=C/c1ccc(/C=C/C(=O)c2sc(NC(=O)CCCCCCCCC(=O)Nc3nc(C)c(C(=O)/C=C/c4ccc(/C=C/C(=O)c5sc(N)nc5C)cc4)s3)nc2C)cc1", "values": [{"measurement": "TGI", "setting": "[1]", "result": "> 100", "unit": "µM"}, {"measurement": "TGI", "setting": "[2]", "result": "> 100", "unit": "µM"}, {"measurement": "TGI", "setting": "[3]", "result": "> 100", "unit": "µM"}, {"measurement": "TGI", "setting": "[4]", "result": "> 100", "unit": "µM"}]}
{"smiles": "CCN(CC)CCn1c2c3ccccc3ccc2c2oc(=O)c3ccccc3c21", "values": [{"measurement": "TGI", "setting": "[1]", "result": "> 100", "unit": "µM"}, {"measurement": "TGI", "setting": "[2]", "result": "> 100", "unit": "µM"}, {"measurement": "TGI", "setting": "[3]", "result": "> 100", "unit": "µM"}, {"measurement": "TGI", "setting": "[4]", "result": "> 100", "unit": "µM"}]}
{"smiles": "CCOC(=O)C(C)(C)Oc1ccc2c(=O)cc(-c3ccc(Cl)cc3)oc2c1", "values": [{"measurement": "TGI", "setting": "[1]", "result": "> 100", "unit": "µM"}, {"measurement": "TGI", "setting": "[3]", "result": "> 100", "unit": "µM"}, {"measurement": "TGI", "setting": "[4]", "result": "> 100", "unit": "µM"}]}
{"smiles": "O=[N+]([O-])c1c(/C=N/Nc2ccccc2)oc(-c2ccc3c(c2)OCO3)c1-c1ccc2c(c1)OCO2", "values": [{"measurement": "TGI", "setting": "[1]", "result": "> 100", "unit": "µM"}, {"measurement": "TGI", "setting": "[3]", "result": "> 100", "unit": "µM"}, {"measurement": "TGI", "setting": "[4]", "result": "> 100", "unit": "µM"}]}
{"smiles": "CC(=O)N/C(=C\\c1ccc(/C=C(\\NC(C)=O)c2nc3ccc(Cl)cc3[nH]2)cc1)c1nc2ccccc2[nH]1", "values": [{"measurement": "TGI", "setting": "[1]", "result": "> 100", "unit": "µM"}, {"measurement": "TGI", "setting": "[2]", "result": "> 100", "unit": "µM"}, {"measurement": "TGI", "setting": "[3]", "result": "> 100", "unit": "µM"}, {"measurement": "TGI", "setting": "[4]", "result": "> 100", "unit": "µM"}]}
{"smiles": "CCCCC#COP(=O)(OCC)OCC", "values": [{"measurement": "TGI", "setting": "[1]", "result": "> 100", "unit": "µM"}, {"measurement": "TGI", "setting": "[2]", "result": "> 100", "unit": "µM"}, {"measurement": "TGI", "setting": "[3]", "result": "> 100", "unit": "µM"}, {"measurement": "TGI", "setting": "[4]", "result": "> 100", "unit": "µM"}]}
{"smiles": "Nc1ccc(C(=O)N/C(=C\\C=C\\c2ccco2)c2nc3[nH]c(=S)[nH]c(=O)c3[nH]2)cc1", "values": [{"measurement": "TGI", "setting": "[1]", "result": "> 100", "unit": "µM"}, {"measurement": "TGI", "setting": "[2]", "result": "> 100", "unit": "µM"}, {"measurement": "TGI", "setting": "[4]", "result": "> 100", "unit": "µM"}]}
{"smiles": "O=C(C(O)c1cn(Cc2ccccc2)c2ccccc12)N1CCCCC1", "note": "(stereo not drawn)", "values": [{"measurement": "TGI", "setting": "[1]", "result": "> 100", "unit": "µM"}, {"measurement": "TGI", "setting": "[2]", "result": "> 10", "unit": "µM"}, {"measurement": "TGI", "setting": "[3]", "result": "> 100", "unit": "µM"}]}
{"smiles": "NC(=O)c1c[se]c(C2OC(CO)C(O)C2O)n1", "note": "(stereo not drawn)", "values": [{"measurement": "TGI", "setting": "[5]", "result": "> 100", "unit": "µM"}, {"measurement": "TGI", "setting": "[6]", "result": "> 100", "unit": "µM"}, {"measurement": "TGI", "setting": "[1]", "result": "> 100", "unit": "µM"}, {"measurement": "TGI", "setting": "[8]", "result": "> 100", "unit": "µM"}, {"measurement": "TGI", "setting": "[3]", "result": "> 100", "unit": "µM"}, {"measurement": "TGI", "setting": "[4]", "result": "> 100", "unit": "µM"}, {"measurement": "TGI", "setting": "[7]", "result": "> 100", "unit": "µM"}, {"measurement": "TGI", "setting": "[9]", "result": "> 100", "unit": "µM"}]}
{"smiles": "COC(=O)c1c(-c2ccccc2)cc2c3cc(-c4ccccc4)c(C(=O)OC)n3c3ccccc3n12", "values": [{"measurement": "TGI", "setting": "[1]", "result": "> 100", "unit": "µM"}, {"measurement": "TGI", "setting": "[2]", "result": "> 100", "unit": "µM"}, {"measurement": "TGI", "setting": "[3]", "result": "> 100", "unit": "µM"}, {"measurement": "TGI", "setting": "[4]", "result": "> 100", "unit": "µM"}]}
